Source: ChEMBL document CHEMBL2073841, “ATP-dependent transport of aflatoxin B1 and its glutathione conjugates by the product of the multidrug resistance protein (MRP) gene” (Mol Pharmacol, 1997)

Molecular target: MRP1 (Multidrug resistance-associated protein 1) (Homo sapiens, UniProt P33527)
Experiment: TP_TRANSPORTER: uptake in membrane vesicle from MRP1-expressing HeLa cells
Format: functional, cell membranes
Settings: membrane vesicles from MRP1-expressing HeLa cells

Sequence of MRP1 (Multidrug resistance-associated protein 1) (P33527 whole entry): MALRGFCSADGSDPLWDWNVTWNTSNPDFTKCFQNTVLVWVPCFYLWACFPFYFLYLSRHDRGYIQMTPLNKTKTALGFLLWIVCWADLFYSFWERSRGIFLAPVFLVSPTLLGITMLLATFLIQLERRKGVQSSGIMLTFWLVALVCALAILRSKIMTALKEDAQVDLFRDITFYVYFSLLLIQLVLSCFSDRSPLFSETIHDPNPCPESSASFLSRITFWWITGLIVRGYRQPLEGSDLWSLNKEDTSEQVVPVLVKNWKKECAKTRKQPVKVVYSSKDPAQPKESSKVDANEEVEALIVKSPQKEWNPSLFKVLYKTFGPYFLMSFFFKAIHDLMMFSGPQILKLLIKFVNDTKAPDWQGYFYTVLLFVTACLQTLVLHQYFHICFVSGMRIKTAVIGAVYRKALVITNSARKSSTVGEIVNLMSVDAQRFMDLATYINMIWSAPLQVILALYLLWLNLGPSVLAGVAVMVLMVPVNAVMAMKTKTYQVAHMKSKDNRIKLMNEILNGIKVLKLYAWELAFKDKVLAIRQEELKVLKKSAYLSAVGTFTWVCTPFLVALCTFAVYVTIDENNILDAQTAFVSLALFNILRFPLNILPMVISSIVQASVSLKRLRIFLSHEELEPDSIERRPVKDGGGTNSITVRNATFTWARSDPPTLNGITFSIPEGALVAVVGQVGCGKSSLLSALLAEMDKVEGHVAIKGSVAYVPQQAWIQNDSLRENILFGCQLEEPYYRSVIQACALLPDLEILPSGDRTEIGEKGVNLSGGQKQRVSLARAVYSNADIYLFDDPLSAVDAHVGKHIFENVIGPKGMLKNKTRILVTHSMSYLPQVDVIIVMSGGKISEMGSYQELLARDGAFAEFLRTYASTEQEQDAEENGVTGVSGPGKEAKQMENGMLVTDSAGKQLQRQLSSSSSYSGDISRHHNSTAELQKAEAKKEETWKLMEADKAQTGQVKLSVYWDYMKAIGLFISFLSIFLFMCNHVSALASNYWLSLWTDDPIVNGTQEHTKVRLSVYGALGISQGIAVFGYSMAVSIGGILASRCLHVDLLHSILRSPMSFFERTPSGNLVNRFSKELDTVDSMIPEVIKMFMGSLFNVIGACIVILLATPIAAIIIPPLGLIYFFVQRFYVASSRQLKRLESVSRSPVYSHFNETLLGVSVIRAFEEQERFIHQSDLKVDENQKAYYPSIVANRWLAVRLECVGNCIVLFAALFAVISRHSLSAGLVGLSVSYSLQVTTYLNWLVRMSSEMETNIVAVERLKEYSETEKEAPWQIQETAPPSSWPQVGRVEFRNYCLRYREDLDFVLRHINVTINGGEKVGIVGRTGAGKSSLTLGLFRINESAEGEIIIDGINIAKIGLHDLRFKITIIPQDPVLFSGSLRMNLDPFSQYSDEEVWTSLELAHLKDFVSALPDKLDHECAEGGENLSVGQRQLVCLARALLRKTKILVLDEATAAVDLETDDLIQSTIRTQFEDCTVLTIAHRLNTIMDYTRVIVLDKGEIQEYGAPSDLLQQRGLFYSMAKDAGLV

Compound `COc1cc2c(c3oc(=O)c4c(c13)CCC4=O)[C@H]1[C@@H](O2)O[C@H](SC[C@@H](NC(=O)CC[C@H](N)C(=O)O)C(=O)NCC(=O)O)[C@H]1O` has a Km of 0.189 µM.
